Measured values taken from PMC3828267 (PLoS ONE, 2013).
Like-named read-outs stand apart in the source and are kept apart here.

Columns and labels:
[1] = biological target: T1, α3β4 AChRs (Homo sapiens, UniProt P30926+P32297); assay: Smoldering activation following acute desensitization, α3β4; format: cell-based; settings: α3β4, antagonist 10 µM applied after 10 minutes
T1 construct: expressed in transfected cells
Description: (§1) Responses were monitored for 10 minutes, and then specific antagonists were added and responses recorded for another two minutes.

[2] = biological target: T2, α7 AChRs (Homo sapiens, UniProt P36544); settings: α7, antagonist 10 µM applied after 10 minutes
T2 sequence (P36544 23-502): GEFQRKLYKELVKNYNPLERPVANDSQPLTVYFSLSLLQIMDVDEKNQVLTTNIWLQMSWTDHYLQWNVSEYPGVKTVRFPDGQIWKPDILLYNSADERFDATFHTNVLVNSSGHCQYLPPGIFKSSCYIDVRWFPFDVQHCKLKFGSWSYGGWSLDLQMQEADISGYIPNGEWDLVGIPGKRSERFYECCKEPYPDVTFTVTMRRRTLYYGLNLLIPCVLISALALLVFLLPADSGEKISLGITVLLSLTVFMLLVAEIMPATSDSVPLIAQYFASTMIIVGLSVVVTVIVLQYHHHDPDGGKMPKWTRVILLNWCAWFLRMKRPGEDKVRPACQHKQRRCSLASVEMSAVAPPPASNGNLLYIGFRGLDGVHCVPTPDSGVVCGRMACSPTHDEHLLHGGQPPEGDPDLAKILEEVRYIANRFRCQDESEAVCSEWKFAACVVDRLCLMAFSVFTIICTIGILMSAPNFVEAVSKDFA
Description: as §1

[3] = biological target: T3, (α4β2)2β2 AChRs (Homo sapiens, UniProt P17787+P43681); settings: cited from earlier work
T3 construct: expressed in transfected cells
T3 sequence (P43681 29-627 limits assumed): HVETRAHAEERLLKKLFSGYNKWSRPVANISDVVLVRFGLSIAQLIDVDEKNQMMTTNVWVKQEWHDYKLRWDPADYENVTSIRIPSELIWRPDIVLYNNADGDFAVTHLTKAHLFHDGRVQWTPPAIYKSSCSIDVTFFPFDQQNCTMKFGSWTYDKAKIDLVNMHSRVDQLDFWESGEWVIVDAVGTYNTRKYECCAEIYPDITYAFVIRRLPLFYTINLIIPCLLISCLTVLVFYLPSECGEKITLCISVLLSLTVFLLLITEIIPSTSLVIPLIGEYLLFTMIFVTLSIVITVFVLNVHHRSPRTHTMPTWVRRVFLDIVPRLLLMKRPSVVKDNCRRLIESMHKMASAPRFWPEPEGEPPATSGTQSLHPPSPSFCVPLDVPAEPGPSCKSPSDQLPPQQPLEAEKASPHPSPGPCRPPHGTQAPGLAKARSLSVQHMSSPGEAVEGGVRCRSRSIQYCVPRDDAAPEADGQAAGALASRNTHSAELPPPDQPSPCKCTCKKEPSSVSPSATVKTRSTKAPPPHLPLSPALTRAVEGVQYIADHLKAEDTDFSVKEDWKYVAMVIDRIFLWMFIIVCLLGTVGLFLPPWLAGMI
T3 sequence (P17787 26-502): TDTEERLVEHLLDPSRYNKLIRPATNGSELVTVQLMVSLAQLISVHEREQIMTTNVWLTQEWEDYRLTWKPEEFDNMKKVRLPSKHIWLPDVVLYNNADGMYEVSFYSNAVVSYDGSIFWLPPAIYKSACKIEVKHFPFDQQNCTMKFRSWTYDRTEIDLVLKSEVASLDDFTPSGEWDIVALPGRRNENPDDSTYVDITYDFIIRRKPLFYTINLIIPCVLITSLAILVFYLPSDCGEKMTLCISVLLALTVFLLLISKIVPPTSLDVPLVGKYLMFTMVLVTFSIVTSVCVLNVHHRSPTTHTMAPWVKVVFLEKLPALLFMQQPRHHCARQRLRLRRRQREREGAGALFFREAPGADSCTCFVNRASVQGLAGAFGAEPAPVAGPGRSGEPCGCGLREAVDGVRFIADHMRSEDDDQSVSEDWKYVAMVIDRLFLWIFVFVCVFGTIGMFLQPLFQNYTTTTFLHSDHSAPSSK

[4] = biological target: T3, (α4β2)2β2 AChRs; assay: Sazetidine-A desensitization of α4β2 cell line enriched for (α4β2)2β2 by β2 transfection and nicotine; format: cell-based; settings: 6 h sazetidine-A, 3 µM and 100 µM ACh curves overlapped
Description: To determine which stoichiometry of α4β2 AChRs was affected by sazetidine-A, we performed short term transfection of β2 subunits into the α4β2 expressing cell line. To increase the expression of the higher sensitivity (α4β2)2β2 stoichiometry, the cell line expressing α4 and β2 was cotransfected with human β2 (pRc-CMV/Geneticin) using the FuGene6 transfection agent (Roche Diagnostics, Indianapolis, IN).

[5] = biological target: T4, human α4β2 AChRs (Homo sapiens, UniProt P17787+P43681); assay: Acute activation, FLEXStation membrane potential dye, α4β2 cell line; format: cell-based
T4 construct: expressed in transfected cells
T4 sequence (P43681 29-627 limits assumed): as the sequence (P43681 29-627 limits assumed) above
T4 sequence (P17787 26-502): as the sequence (P17787 26-502) above
Description: (§2) The parental cell line used for transfections was tsA201, derived from the human embryonic kidney cell line (HEK) 293 [33]. […] The cell line permanently expressing α3β4 AChRs has been described, [34]. A stable cell line expressing functional α7 AChRs was prepared by initially transfecting the tsA201 cell line with cDNA for α7 and subsequently transfecting with cDNA for the AChR-selective chaperone, human RIC-3.
(§3) Responses to nicotinic agonists were determined using a FLEXStation microplate fluorometer (Molecular Devices, Sunnyvale, CA) as described. For cell lines expressing α4β2 and α3β4 AChRs, the cells were plated at 10^5 cells/ml (100 µl/well) in black-walled clear-bottom 96 well plates (Costar, Fisher Scientific, Pittsbugh, PA), and incubated for 48 hours prior to assaying responses to various nicotinic agonists. The α7/RIC-3 expressing cells were plated at 5×10^5/ml in black-walled clear-bottom 96 well BioCoat plates (BD Biosciences, Franklin Lakes, NJ) in the continued presence of VPA and PBA, with the addition of 5% human AB serum (Pel-Freez Biologicals, Rogers, AR) to further increase expression of α7 [35]. The cells were then grown for 24 hours prior to the assay.
(§4) To measure responses to various nicotinic agonists, 100 µl of a fluorescent dye which is sensitive to changes in membrane potential (Molecular Devices) was added to the wells. The dye was prepared according to the manufacturer’s instructions, with the addition of atropine (0.5 µM) to block muscarinic responses. The plates were then incubated at 37°C for one hour prior to the assay. Serial dilutions of agonists were then prepared in Hanks Balanced Salt Solution (HBSS) in V-shaped 96-well plates (Fisher Scientific Co, Pittsburgh, PA). Fluorescent responses were measured in the FLEX Station at 25°C, with an excitation wavelength of 530 nm and an emission wavelength of 565 nm. Various agonists (50 µl) were added after the first 20 seconds and responses were followed for 60–120 seconds.
(§5) Data were graphed using GraphPad Prism software. Non-linear models (sigmoidal dose-response with variable slope or two site competition) were used to fit the concentration response curves. The EC50 and IC50 were calculated from the curves. Kaleidagraph software was used to determine Hill slopes and standard errors of the EC50 and IC50.

[6] = biological target: T4, human α4β2 AChRs; assay: Chronic desensitization (16 h agonist, then ACh response) and calculated smoldering activation, α4β2 cell line; format: cell-based; settings: for IC50: overnight (16 h) agonist, first (more sensitive) component, read-out: Desensitization IC50; for Hill (desensitization): first component
Description: (§6) To measure desensitization, plates were prepared as for agonist assays. Sixteen hours prior to the assay, serial dilutions of agonists, prepared in regular growth medium, were added to the plates. One hour before the assay, the membrane potential-sensitive fluorescent dye with 0.5 µM atropine was added to the wells. […] Each data point represents the average of peak values for individual dose response curves from 4–8 wells.
as §5
(§7) Responses for the three different AChRs are shown in Figures 3, 4, 5, 6, along with the dose response curves for activation (the same as shown in Figure 2). The range of concentrations at which both sustained activation and desensitization can occur (“smoldering activation”) was calculated by multiplying the acute response to agonists at each concentration by the fractional response remaining after desensitization.

[7] = biological target: T2, α7 AChRs; assay: Acute activation, FLEXStation membrane potential dye, α7/RIC-3 cell line; format: cell-based; design: expressed in transfected cells; grown in VPA and PBA; settings: α7
Description: as §2, §3, §4, §5

[8] = design: method as in PMID 22899751; settings: mice treated with 2 mg/kg; cited from earlier work
[9] = tested on: (α4β2)2α4 AChRs; settings: cited from earlier work
[10] = biological target: T1, α3β4 AChRs; assay: Chronic desensitization (16 h agonist, then ACh response) and calculated smoldering activation, α3β4 cell line; format: cell-based; settings: α3β4: 1.0 mM ACh
Description: as §6, §5, §7

[11] = biological target: T2, α7 AChRs; assay: Chronic desensitization (16 h agonist, then ACh response) and calculated smoldering activation, α7 cell line; format: cell-based; design: expressed in transfected cells; grown in VPA and PBA; settings: α7: 10 µM ACh
Description: as §6, §5, §7

[12] = biological target: T1, α3β4 AChRs; assay: Acute activation, FLEXStation membrane potential dye, α3β4 cell line; format: cell-based; settings: α3β4
Description: as §2, §3, §4, §5

[13] = overnight (16 h) agonist, read-out: Desensitization IC50

T1 sequence (P32297 32-505): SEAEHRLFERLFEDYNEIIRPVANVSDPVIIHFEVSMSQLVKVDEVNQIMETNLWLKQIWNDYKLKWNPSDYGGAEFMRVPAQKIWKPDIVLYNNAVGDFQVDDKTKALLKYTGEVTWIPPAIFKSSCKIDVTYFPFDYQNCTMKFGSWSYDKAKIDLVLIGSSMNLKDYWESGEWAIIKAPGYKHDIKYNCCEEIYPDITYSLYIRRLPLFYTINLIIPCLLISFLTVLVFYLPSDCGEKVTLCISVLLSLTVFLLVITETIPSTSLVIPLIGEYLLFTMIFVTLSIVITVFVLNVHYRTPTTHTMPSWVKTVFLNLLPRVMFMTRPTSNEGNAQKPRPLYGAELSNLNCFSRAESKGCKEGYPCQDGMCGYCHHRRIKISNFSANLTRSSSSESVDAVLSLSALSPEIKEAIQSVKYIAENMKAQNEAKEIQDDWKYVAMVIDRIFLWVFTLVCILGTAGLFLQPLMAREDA
T1 sequence (P30926 22-498): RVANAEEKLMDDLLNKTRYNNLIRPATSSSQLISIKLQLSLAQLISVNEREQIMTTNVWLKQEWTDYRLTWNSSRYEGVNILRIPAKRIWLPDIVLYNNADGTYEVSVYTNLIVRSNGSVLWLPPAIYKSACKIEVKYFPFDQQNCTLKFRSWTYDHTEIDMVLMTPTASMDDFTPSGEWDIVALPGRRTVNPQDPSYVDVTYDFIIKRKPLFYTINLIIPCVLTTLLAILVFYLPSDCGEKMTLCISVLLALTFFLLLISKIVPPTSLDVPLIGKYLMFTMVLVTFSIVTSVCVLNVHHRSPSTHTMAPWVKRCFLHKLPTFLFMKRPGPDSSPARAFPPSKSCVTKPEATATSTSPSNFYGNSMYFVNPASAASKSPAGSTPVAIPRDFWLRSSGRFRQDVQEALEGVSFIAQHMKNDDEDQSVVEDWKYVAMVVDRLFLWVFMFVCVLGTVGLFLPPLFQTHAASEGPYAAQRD

Structure (SMILES): CNC1(C)C2CCC(C2)C1(C)C (stereo not shown) [MCA, mecamylamine]
- Effect of antagonist on sustained agonist response [1]: abrogated

Structure (SMILES): CCN1C[C@]2(COC(=O)c3ccccc3N3C(=O)C[C@H](C)C3=O)CC[C@H](OC)[C@@]34[C@@H]5C[C@H]6[C@H](OC)[C@@H]5[C@](O)(C[C@@H]6OC)[C@@](O)([C@@H](OC)[C@H]23)[C@@H]14 [MLA, methyllycaconitine]
- Effect of antagonist on residual agonist response [2]: abrogated

Structure (SMILES): OCCCCC#Cc1cncc(OC[C@@H]2CCN2)c1 [Sazetidine-A]
- Agonist type ([3]; (α4β2)2β2, Xenopus oocytes expressing human α4 and β2 subunits): full agonist
- Agonist type ([3]; (α4β2)2β2, concatenated AChRs in Xenopus oocytes): full agonist
- Stoichiometry of α4β2 desensitized [4]: desensitizes only the (α4β2)2β2 stoichiometry
- Efficacy (%) (relative to ACh) ([5]; α4β2): 44%
- Agonist type (full or partial) ([5]; α4β2, mixture of stoichiometries): partial agonist
- Hill (activation) ([5]; α4β2, higher sensitivity component or monophasic curve): 1.2
- EC50 ([5]; α4β2 cell line, mixed stoichiometries, higher sensitivity component where two-site fit, else monophasic, read-out: Activation EC50): 2.3 ± 0.3 nM
- Area of overlap of activation and desensitization curves centered at ([6]; (α4β2)2β2 AChRs, 3 µM ACh): 1.5 nM
- Extent of desensitization of α4β2 AChRs to ACh ([6]; prolonged exposure, up to high concentrations): full desensitization was not reached even at high concentrations
- Concentration from which the desensitization dose response curve shows a plateau ([6]; α4β2, assayed with 100 µM ACh): around 10 nM
- Intercept of Activation and Desensitization Curves ([6]; α4β2: 3 µM ACh ((α4β2)2β2 stoichiometry), centre of smoldering activation): 0.0015 µM
- Intercept of Activation and Desensitization Curves ([6]; α4β2: 3 µM ACh ((α4β2)2β2 stoichiometry), centre of smoldering activation, listed as sazetidine-A): around 0.0015 µM
- IC50 ([6]; α4β2: 3 µM ACh): 0.48 ± 0.02 nM
- Hill (desensitization) ([6]; α4β2: 3 µM ACh): −0.9
- Intercept of Activation and Desensitization Curves ([6]; α4β2: 100 µM ACh (both stoichiometries)): 0.002 µM
- IC50 ([6]; α4β2: 100 µM ACh): 0.26 ± 0.2 nM
- Hill (desensitization) ([6]; α4β2: 100 µM ACh): −0.6
- Agonist type (full or partial) [7]: full agonist
- Efficacy (%) (relative to ACh) [7]: 100%
- Hill (activation) [7]: 1.6
- EC50 ([7]; read-out: Activation EC50): 1200 ± 80 nM
- Brain levels [8]: 150 nM
- Serum levels [8]: 1600 nM
- Activity ([9]; (α4β2)2α4, Xenopus oocytes expressing human α4 and β2 subunits): 6%
- Agonist type ([9]; (α4β2)2α4, concatenated AChRs in Xenopus oocytes): partial agonist with very low efficacy
- Efficacy ([9]; (α4β2)2α4 stoichiometry, concatenated AChRs in Xenopus oocytes): < 1%
- Hill (desensitization) [10]: −0.5
- IC50 [10, 13]: 330 ± 100 nM
- Hill (desensitization) [11]: −2.9
- Intercept of Activation and Desensitization Curves [11]: 1.5 µM
- IC50 [11, 13]: 3500 ± 400 nM
- Agonist type (full or partial) [12]: full agonist
- Efficacy (%) (relative to ACh) [12]: 100%
- Hill (activation) [12]: 1.3
- EC50 ([12]; read-out: Activation EC50): 170 ± 30 nM
